Common to all, as to assay type: cell-based, human
One experiment relates to AUA reporter. The experiment can be described thus: Creation of a START codon (AUA to AUI), EGFPd2/dTomato reporter, flow cytometry. The note with it: 48 hours post-transfection, n=3. An excerpt: To test this, an ADAR substrate was designed composed of a dsRNA hairpin containing both an AUA-codon with a mismatch at the second adenine to promote specific deamination to AUI (as opposed to IUA or IUI) and an MS2 operator motif (see e.g., FIG. 26b). The design of one large dsRNA hairpin was chosen to promote correct folding of RNA secondary structures. Previous studies have shown that MS2 operators in the 5′UTR of eukaryotic mRNA can lead to decreased translational efficiency when co-expressed with its corresponding coat protein (MS2 coat protein, or MCP), so high and low affinity variants of the MS2 operator (called here MS2-C and MS2-A respectively for the base at the stem loop) were tested with the idea that the lower affinity MS2-A loop would be less likely to inhibit translation by coat protein alone. As positive controls, the same loops were also designed with the correct AUG start codon.
These designs were cloned into pcDNA3 vectors containing a bidirectional CMV promoter driving constitutive dTomato and EGFPd2 (see e.g., FIG. 26c). The S′UTR and start codon of EGFPd2 were replaced with the editable start codon designs so the translational efficiency could be measured by looking at the EGFPd2 fluorescence relative to dTomato when co-expressed with MCP-ADAR. In this construct, if the correct start codon is skipped, the next AUG codon leads to a short, out of frame translation product.
HEK293FT cells were co-transfected with each of the reporter constructs (MS2-C w/ AUG start, MS2-C w/ AUA start, MS2-A w/ AUG start, and MS2-A w/ AUA start) and either filler DNA, inactivated ADAR2-DD (E396A) fused to MCP (MCP-dADAR), or active ADAR2-DD (E488Q) fused to MCP (MCP-ADAR). 48 hours post-transfection, cells were lifted and analyzed by flow cytometry. Transfected cells were gated by dTomato, and the median EGFPd2-to-dTomato ratio for the population was calculated per replicate (n=3) by FLOWJO. 2-Way ANOVA was performed to determine significance.

Experiment [1] concerns mRNA reporters containing different number of stop codons and/or MS2 elements. The experiment in a line: Stop codon editing assay by Western blot. The note with it: HEK293FT cells; reporters with different numbers of stop codons and RNA elements. An excerpt: HEK 293 FT cells were co-transfected with plasmids expressing the reporter containing 2 UAG stop codons in the hairpin and a pcDNA3 construct encoding a fusion protein composed of MCP, ADAR2-DD (E488Q), and TagBFP.

Another experiment deals with GFP-GPI reporter. The experiment in a line: AUA to AUI editing creating upstream in-frame signal sequence and HA tag, live imaging and HA staining. An excerpt: To test this, a reporter construct was designed that contained: an MS2-A editable AUA start codon upstream of the murine IgGκ signal sequence and HA epitope tag (SS-HA), an in frame AUG start codon, GFP, and the glycosylphosphatidylinositol (GPI) anchor sequence from Thymocyte differentiation antigen 1 (GPI in diagram) (see e.g., FIG. 27a). With this reporter, in the absence of editing, the majority of the translated product will be from the AUG codon directly upstream of GFP. This will lead to the translation product residing in the cytoplasm with a non-functional GPI anchor (as this post-translational modification (PTM) must occur in the endoplasmic reticulum (ER) lumen). Upon ADAR editing of the upstream AUA to AUI, translation will initiate upstream of the signal sequence, leading to co-translational translocation of HA-GFP-GPI into the ER lumen, the addition of the GPI anchor PTM, and presentation of HA-GFP on the plasma membrane (see e.g., FIG. 27b). With this construct, the editing can be monitored by either by microscopy (looking for ER & plasma membrane localization) or directly by immunostaining for the HA-tag.
HEK cells were co-transfected with the GFP-GPI reporter and either filler DNA, MCP-dADAR, or MCP-ADAR. A GFP-GPI with a functional start codon before the secretion signal was also transfected as a positive control (GFP-GPI Control). One day after transfection, HEK cells were imaged live, and then fixed and stained for HA tag with a primary anti-HA antibody and a secondary antibody that was conjugated to ALEXAFLUOR 647 (AF647).

The next experiment deals with UAG-MS2 editing reporter. The experiment can be described thus: Stop codon editing reporter (mCherry / mNeonGreen) co-transfected with ADAR variants, fluorescence microscopy / ImageJ quantification. The note with it: HEK 293 FT cells co-transfected with reporter containing 2 UAG stop codons in the hairpin; two days after transfection.
A further experiment deals with T2A* construct. The experiment in a line: Western blot (FLAG) of T2A* construct co-transfected with MCP-ADAR constructs. As to conditions: 3 ng T2A* and 30 ng ADAR construct; lysates 48 hours later. The protocol: Additionally, the clonal HEK line was co-transfected with 3 ng of the T2A* construct and 30 ng of either filler DNA, MCP-dADAR, or MCP-ADAR. 48 hours later lysates were collected with 1×LDS-PAGE loading buffer (THERMOFISHER) on ice. The samples were sonicated, centrifuged, and boiled at 70° C. for 10 min after the addition of 1×Reducing Agent (THERMOFISHER). The samples were run on a 4%-12% bis-tris polyacrylamide gel at 175V for 45 minutes, and the samples were transferred onto a nitrocellulose membrane using the IBLOT (THERMOFISHER). Samples were probed for FLAG tag (Direct-Blot™ HRP anti-[…] Tag Antibody, “[…]” is disclosed as SEQ ID NO: 406) and GAPDH-loading control (Direct-Blot™ HRP anti-GAPDH Antibody) respectively.
Background: A western blot detects proteins with antibodies after separation by electrophoresis.

With “MCP-linker-ADAR2(E488Q)-TagBFP [MCP-ADAR]”, in the experiment on AUA reporter, the “effect on translational efficiency from a native AUG start codon, MS2-A substrate” value was “more modest negative effect on translational efficiency”; the “increase of relative fluorescence, MS2-C w/ AUA reporter, relative to NT” value was “not significant”; the “relative EGFPd2/dTomato fluorescence, MS2-A w/ AUA substrate” value is recorded as “significant increase”. Moreover, the “relative fluorescence (EGFPd2-to-dTomato) of MS2-C reporters compared with filler DNA (NT)” value in the experiment on AUA reporter (2-Way ANOVA) was “significantly decreased the relative fluorescence”. Also, in experiment [1], the “off-target editing of stop-codon reporters, Western blot (HA-mNeonGreen)” value is recorded as “Almost no off-target editing”. Further, the “HA tag staining of cells with AUA construct” value in the experiment on GFP-GPI reporter (fixed, permeabilized, anti-HA and AF647 secondary) is recorded as “robust staining”. In addition, in the experiment with GFP-GPI reporter (one day after transfection), the “cellular distribution of GFP from AUA-SS-GFP-GPI, live imaging” value is reported as “looked very similar”. Moreover, in the experiment with UAG-MS2 editing reporter, the “mNeonGreen expression, fluorescence microscopy” value is “mNeonGreen robustly expressed”. For the same substance, the “FLAG staining of the main HaloTag-T2A*-FLAG-Gal4-VP64 fusion product (~67 kDa)” value in the experiment with T2A* construct is listed as “reduced staining”.

The values are drawn from patent US12565665B2, “Compositions and methods for controlled mRNA translation and stability” (TRUSTEES OF BOSTON UNIVERSITY, priority 2022, dated 2026).
